Data published in patent US20090220425A1, “Method to Quantitatively Measure Effect of Psychotropic Drugs on Sensory Discrimination” (DREXEL UNIVERSITY, priority 2006, published 2009).

Experiments:
[1] = system: ensemble of neurons in the deep layers of the forelimb rat primary somatosensory cortex; test: PSTH-based classification of stimulus location from single-trial responses of neuron ensembles (information representation); assay type: in vivo; conditions: for classification performance (bits of information) after drug compared to saline: one ensemble of neurons, touch-stimuli to contralateral body, every bin size tested, FIGS. 1A and 1B
[2] = system: neurons of the infragranular layer of the primary somatosensory cortex of the rat; test: Classical neurophysiological measures of somatosensory responses (sensory mapping, magnitude and latency of neural responses to touch stimuli) before and after drug; assay type: in vivo

Clc1cccc(N2CCNCC2)c1 [MCPP, meta-chlorophenylpiperazine]
classification performance (bits of information) after drug compared to saline [1]: increase for every bin size tested
effectiveness of the low dose ([2]; MCPP 0.075 (low) mg/kg, intraperitoneal (IP), dissolved in saline): effective

CNCCC(Oc1ccc(C(F)(F)F)cc1)c1ccccc1 (stereo not shown) [fluoxetine]
amount of information represented by the ensemble after administration ([1]; binsize from 40 ms (spike-count) to 1 ms (spike-timing), single-trial discrimination of stimulus location): greater
classification performance (bits of information) after drug compared to saline [1]: increased for every bin size tested
effectiveness of the medium dose ([2]; FLU 10 (medium) mg/kg, IP injection, dissolved in saline): effective
number of spikes per stimulus after drug ([2]; fluoxetine 10 mg/kg, two rats, 0.67 spikes per stimulus before drug, significant increase, p<0.001): 1.05 spikes per stimulus
latency of the response after drug ([2]; fluoxetine 10 mg/kg, two rats, 20 msec before drug, decrease did not reach significance (p=0.11)): 17.5 ms
